27 compounds from patent publication US7615569B2, “Inhibitors of ion channels” (Icagen, Inc., priority 2005, dated 2009) can be followed below.

For orientation: IC50 means the midpoint of a concentration-inhibition curve. Read a high IC50 as weaker potency.

In this experiment the target is T1, hSCN3A (Homo sapiens, UniProt Q9NY46).
T1 construct: expressed in transfected cells
Put plainly: SCN3A inhibitory activity in HEK cells stably expressing hSCN3A (whole-cell patch clamp / radiotracer efflux HTS). Format: cell-based. Conditions: HEK cells stably transfected with hSCN3A. For orientation: The patch-clamp technique gives a direct electrical read-out from membranes.

T1 sequence (Q9NY46 whole entry): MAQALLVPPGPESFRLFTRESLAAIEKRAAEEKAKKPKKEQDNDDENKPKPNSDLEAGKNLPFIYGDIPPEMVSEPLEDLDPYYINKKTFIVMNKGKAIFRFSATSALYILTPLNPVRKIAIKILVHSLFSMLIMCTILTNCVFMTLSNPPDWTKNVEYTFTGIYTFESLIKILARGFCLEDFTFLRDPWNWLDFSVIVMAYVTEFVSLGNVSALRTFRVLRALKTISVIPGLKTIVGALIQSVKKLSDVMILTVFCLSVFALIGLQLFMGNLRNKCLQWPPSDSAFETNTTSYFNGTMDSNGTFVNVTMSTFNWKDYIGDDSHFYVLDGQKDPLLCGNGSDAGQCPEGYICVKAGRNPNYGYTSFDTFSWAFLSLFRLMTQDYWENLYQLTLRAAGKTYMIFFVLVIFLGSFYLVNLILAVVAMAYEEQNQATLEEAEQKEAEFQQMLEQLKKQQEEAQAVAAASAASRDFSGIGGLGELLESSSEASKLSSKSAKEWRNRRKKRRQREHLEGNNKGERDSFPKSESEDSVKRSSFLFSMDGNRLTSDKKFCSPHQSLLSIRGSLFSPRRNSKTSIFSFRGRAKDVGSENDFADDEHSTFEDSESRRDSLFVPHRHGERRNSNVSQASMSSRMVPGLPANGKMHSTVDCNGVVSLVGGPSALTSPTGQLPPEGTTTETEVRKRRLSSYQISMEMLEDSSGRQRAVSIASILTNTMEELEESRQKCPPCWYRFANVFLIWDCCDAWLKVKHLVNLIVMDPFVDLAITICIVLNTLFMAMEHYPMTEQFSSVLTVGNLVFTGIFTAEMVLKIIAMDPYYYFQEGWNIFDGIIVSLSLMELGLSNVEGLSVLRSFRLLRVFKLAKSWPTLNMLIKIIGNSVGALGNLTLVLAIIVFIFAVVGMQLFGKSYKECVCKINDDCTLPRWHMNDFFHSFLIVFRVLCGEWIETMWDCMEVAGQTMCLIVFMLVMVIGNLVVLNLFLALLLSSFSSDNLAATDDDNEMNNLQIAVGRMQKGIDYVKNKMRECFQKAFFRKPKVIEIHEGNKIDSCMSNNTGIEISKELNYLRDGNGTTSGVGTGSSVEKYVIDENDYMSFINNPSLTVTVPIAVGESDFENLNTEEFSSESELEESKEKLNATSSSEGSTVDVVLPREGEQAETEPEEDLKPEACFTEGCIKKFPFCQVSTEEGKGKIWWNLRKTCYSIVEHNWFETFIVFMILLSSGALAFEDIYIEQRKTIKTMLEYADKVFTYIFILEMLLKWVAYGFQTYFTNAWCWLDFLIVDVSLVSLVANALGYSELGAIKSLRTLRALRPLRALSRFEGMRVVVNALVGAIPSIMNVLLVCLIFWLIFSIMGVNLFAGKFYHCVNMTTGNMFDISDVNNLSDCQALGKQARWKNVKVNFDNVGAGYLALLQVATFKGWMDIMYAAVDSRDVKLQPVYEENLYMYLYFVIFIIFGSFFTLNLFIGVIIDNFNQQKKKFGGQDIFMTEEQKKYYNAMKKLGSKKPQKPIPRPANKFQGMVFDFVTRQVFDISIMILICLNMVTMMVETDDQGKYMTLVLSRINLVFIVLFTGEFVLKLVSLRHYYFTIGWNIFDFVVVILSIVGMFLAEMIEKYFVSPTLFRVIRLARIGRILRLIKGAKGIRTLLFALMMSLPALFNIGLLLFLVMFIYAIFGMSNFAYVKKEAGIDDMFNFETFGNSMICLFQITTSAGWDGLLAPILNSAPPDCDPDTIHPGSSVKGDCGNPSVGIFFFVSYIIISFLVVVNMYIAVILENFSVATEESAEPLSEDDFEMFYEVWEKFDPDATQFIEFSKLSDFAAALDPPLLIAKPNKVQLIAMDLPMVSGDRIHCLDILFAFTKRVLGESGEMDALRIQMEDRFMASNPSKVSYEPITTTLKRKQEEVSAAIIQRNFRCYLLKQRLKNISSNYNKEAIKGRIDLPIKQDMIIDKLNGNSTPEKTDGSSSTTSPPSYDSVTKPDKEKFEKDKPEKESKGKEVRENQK

On to `O=S(=O)(Nc1nccs1)c1ccc(-c2nc(COc3c(Cl)cccc3Cl)n[nH]2)cc1` [Compound 119, 4-[5-(2,6-Dichloro-phenoxymethyl)-2H-[1,2,4]triazol-3-yl]-n-thiazol-2-yl-benzenesulfonamide], for which the half-maximal inhibitory concentration (IC50) was greater than 1000 nM.

Compound `O=S(=O)(Nc1nccs1)c1ccc(-c2nnc(Cc3cccc(Cl)c3)[nH]2)cc1` [Compound 96, 4-[5-(3-Chloro-benzyl)-4H-[1,2,4]triazol-3-yl]-N-thiazol-2-yl-benzenesulfonamide] yielded a 50% inhibitory concentration (IC50) of 100 to 500 nM.

With `O=S(=O)(Nc1nccs1)c1ccc(-c2nc(Cc3ccccc3F)c[nH]2)cc1` [Compound 35, 4-[4-(2-Fluoro-benzyl)-1H-imidazol-2-yl]-N-thiazol-2-yl-benzenesulfonamide], the IC50 is 500 to 1000 nM.

`O=S(=O)(Nc1nccs1)c1ccc(-c2nc(CCc3ccccc3Cl)c[nH]2)cc1` [Compound 14, 4-{4-[2-(2-Chloro-phenyl)-ethyl]-1H-imidazol-2-yl}-N-thiazol-2-yl-benzenesulfonamide] had an IC50 of 100 to 500 nM.

The compound `O=S(=O)(Nc1nccs1)c1ccc(-c2nc3ccccc3[nH]2)cc1` [Compound 10, 4-(1H-Benzoimidazol-2-yl)-N-thiazol-2-yl-benzenesulfonamide] returned an IC50 greater than 1000 nM.

As for `CC1(Cc2ccc(Cl)c(Cl)c2)N=C(c2ccc(S(=O)(=O)Nc3nccs3)cc2)NC1=O` (stereo not drawn) [Compound 107, 4-[4-(3,4-Dichloro-benzyl)-4-methyl-5-oxo-4,5-dihydro-1H-imidazol-2-yl]-N-thiazol-2-yl-benzenesulfonamide], the IC50 was greater than 1000 nM.

`Cc1ccccc1CCc1c[nH]c(-c2ccc(S(=O)(=O)Nc3nccs3)cc2)n1` [Compound 33, N-Thiazol-2-yl-4-[4-(2-o-tolyl-ethyl)-1H-imidazol-2-yl]-benzenesulfonamide]: the IC50 lay within 500 to 1000 nM.

`O=S(=O)(Nc1nccs1)c1ccc(-c2nc(-c3ccccc3)c(-c3ccccc3)[nH]2)cc1` [Compound 1, 4-(4,5-Diphenyl-1H-imidazol-2-yl)-N-thiazol-2-yl-benzenesulfonamide] came in with a half-maximal inhibitory concentration (IC50) of 100 to 500 nM.

Consider `O=S(=O)(Nc1nccs1)c1ccc(-c2cc(CCCOc3ccc(Cl)cc3Cl)[nH]n2)cc1` [Compound 123, 4-{5-[3-(2,4-Dichloro-phenoxy)-propyl]-1H-pyrazol-3-yl}-N-thiazol-2-yl-benzenesulfonamide], for which the IC50 was 100 to 500 nM.

`O=S(=O)(Nc1nccs1)c1ccc(-c2nc(COc3c(Cl)cccc3Cl)n[nH]2)cc1F` [Compound 115, 4-[5-(2,6-Dichloro-phenoxymethyl)-2H-[1,2,4]triazol-3-yl]-2-fluoro-n-thiazol-2-yl-benzenesulfonamide] had a 50% inhibitory concentration (IC50) of 100 to 500 nM.

The compound `O=S(=O)(Nc1nccs1)c1ccc(-c2nc(Cc3ccc(C(F)(F)F)cc3)c[nH]2)cc1` [Compound 34, N-Thiazol-2-yl-4-[4-(4-trifluoromethyl-benzyl)-1H-imidazol-2-yl]-benzenesulfonamide] showed an IC50 of 100 to 500 nM.

`COc1ccc(C2(c3c[nH]c(-c4ccc(S(=O)(=O)Nc5nccs5)cc4)n3)CC2)cc1` [Compound 44, 4-{4-[1-(4-Methoxy-phenyl)-cyclopropyl]-1H-imidazol-2-yl}-N-thiazol-2-yl-benzenesulfonamide] yielded a concentration for half-maximal inhibition (IC50) of 500 to 1000 nM.

`O=S(=O)(Nc1nccs1)c1ccc(-c2nc(CCCOc3ccc(Cl)cc3)c[nH]2)cc1` [Compound 9, 4-{4-[3-(4-Chloro-phenoxy)-propyl]-1H-imidazol-2-yl}-N-thiazol-2-yl-benzenesulfonamide] came in with a half-inhibitory concentration (IC50) of 500 to 1000 nM.

Take `O=S(=O)(Nc1nccs1)c1ccc(-c2nnc(COc3ncc(Cl)cc3Cl)[nH]2)cc1` [Compound 120, 4-[5-(3,5-Dichloro-pyridin-2-yloxymethyl)-4H-[1,2,4]triazol-3-yl]-n-thiazol-2-yl-benzenesulfonamide]: the IC50 is greater than 1000 nM.

Regarding `O=S(=O)(Nc1nccs1)c1ccc(-c2nc(Cc3ccc4c(c3)OCO4)c[nH]2)cc1` [Compound 49, 4-(4-Benzo[1,3]dioxol-5-ylmethyl-1H-imidazol-2-yl)-N-thiazol-2-yl-benzenesulfonamide], the IC50 lay within 500 to 1000 nM.

`O=S(=O)(Cc1ncc(Cl)s1)c1ccc(-c2nc(CCc3cc(Cl)cc(Cl)c3)c[nH]2)cc1` [Compound 122, 5-Chloro-2-(4-{4-[2-(3,5-dichloro-phenyl)-ethyl]-1H-imidazol-2-yl}-benzenesulfonylmethyl)-thiazole]: the IC50 is less than 100 nM.

The compound `Cc1ccc(Cc2c[nH]c(-c3ccc(S(=O)(=O)Nc4nccs4)cc3)n2)cc1` [Compound 32, 4-[4-(4-Methyl-benzyl)-1H-imidazol-2-yl]-N-thiazol-2-yl-benzenesulfonamide] registered an IC50 greater than 1000 nM.

Consider `O=S(=O)(Nc1nccs1)c1ccc(NCC(c2ccccc2)c2ccccc2)nc1` [Compound 124, 6-(2,2-Diphenyl-ethylamino)-pyridine-3-sulfonic acid thiazol-2-ylamide], for which the half-inhibitory concentration (IC50) lay within 500 to 1000 nM.

Regarding `O=S(=O)(Nc1nccs1)c1ccc(-c2nnc(COc3ccc(C(F)(F)F)cn3)[nH]2)cc1` [Compound 118, N-thiazol-2-yl-4-[5-(5-trifluoromethyl-pyridin-2-yloxymethyl)-4H-[1,2,4]triazol-3-yl]-benzenesulfonamide], the IC50 was greater than 1000 nM.

As to `O=S(=O)(Nc1nccs1)c1ccc(-c2nnc(Cc3ccc(Cl)c(Cl)c3)[nH]2)cc1` [Compound 95, 4-[5-(3,4-Dichloro-benzyl)-4H-[1,2,4]triazol-3-yl]-N-thiazol-2-yl-benzenesulfonamide], the IC50 is less than 100 nM.

As for `Cc1cccc(Cc2c[nH]c(-c3ccc(S(=O)(=O)Nc4nccs4)cc3)n2)c1` [Compound 27, 4-[4-(3-Methyl-benzyl)-1H-imidazol-2-yl]-N-thiazol-2-yl-benzenesulfonamide], the IC50 is 100 to 500 nM.

`COCn1c(Cc2ccc(Cl)c(Cl)c2)nnc1-c1ccc(S(=O)(=O)Nc2nccs2)cc1` [Compound 97, 4-[5-(3,4-Dichloro-benzyl)-4-methoxymethyl-4H-[1,2,4]triazol-3-yl]-N-thiazol-2-yl-benzenesulfonamide] came in with a half-maximal inhibitory concentration (IC50) of 500 to 1000 nM.

On to `O=S(=O)(Nc1nccs1)c1ccc(-c2nc(C3CCC(c4ccc(Cl)cc4)CC3)c[nH]2)cc1` (stereo not drawn) [Compound 12, 4-{4-[4-(4-Chloro-phenyl)-cyclohexyl]-1H-imidazol-2-yl}-N-thiazol-2-yl-benzenesulfonamide], for which the IC50 is less than 100 nM.

The compound `O=S(=O)(Nc1nccs1)c1ccc(-c2nc(Cc3ccc(F)c(F)c3)c[nH]2)cc1` [Compound 23, 4-[4-(3,4-Difluoro-benzyl)-1H-imidazol-2-yl]-N-thiazol-2-yl-benzenesulfonamide] yielded an IC50 of 100 to 500 nM.

`O=S(=O)(Nc1nccs1)c1ccc(-c2nc(C3(c4ccccc4)CC3)c[nH]2)cc1` [Compound 41, 4-[4-(1-Phenyl-cyclopropyl)-1H-imidazol-2-yl]-N-thiazol-2-yl-benzenesulfonamide] had an IC50 greater than 1000 nM.

In turn, `O=S(=O)(Nc1nccs1)c1ccc(-c2nc(CCc3ccc(F)cc3)c[nH]2)cc1` [Compound 15, 4-{4-[2-(4-Fluoro-phenyl)-ethyl]-1H-imidazol-2-yl}-N-thiazol-2-yl-benzenesulfonamide] displayed an IC50 of 100 to 500 nM.

Turning to `O=S(=O)(NCc1nccs1)c1ccc(-c2nc(Cc3cc(F)cc(F)c3)c[nH]2)cc1` [Compound 98, 4-[4-(3,5-Difluoro-benzyl)-1H-imidazol-2-yl]-N-thiazol-2-ylmethyl-benzenesulfonamide], the IC50 was greater than 1000 nM.
